Results: patent publication US20180237362A1, “NOVEL POLYGODIAL ANALOGS FOR THE TREATMENT OF CANCER AND OTHER PROLIFERATIVE DISEASES” (THE BOARD OF REGENTS OF THE UNIVERSITY OF TAXAS SYSTEM, priority 2015, published 2018)

Assays:
[1] = tested on: human A549 non-small cell lung cancer (NSCLC); experiment: MTT antiproliferative assay, A549; assay type: cell-based
Description: (§1) Human mammary carcinoma MCF-7 (ATCC HTB22) cells were cultured in RPMI supplemented with 10% FBS. The U87 cells (ATCC HTB-14) were cultured in DMEM culture medium, while the A549 cells (DSMZ ACC107) were cultured in RPMI culture medium supplemented with 10% heat-inactivated FBS. The GBM Hs683 (ATCC HTB-138) cells were cultivated in DMEM supplemented with 10% FBS. The human uterine sarcoma MES-SA (ATCC CRL1966) and MES-SA/D×5 cells were cultured in RPMI-1640 medium supplemented with 10% FBS with MES SA/D×5 maintained in the presence of 500 nM Doxorubicin (Sigma). SKMEL-28 cells (ATCC HTB72) and U373 GBM cells (ECACC 08061901) were cultured in RPMI culture medium supplemented with 10% heat-inactivated FBS. Cell culture media were supplemented with 4 mM glutamine (Lonza code BE17-605E), 100 μg/mL gentamicin (Lonza code 17-5182), and penicillin-streptomycin (200 units/ml and 200 μg/ml) (Lonza code 17-602E). The MDA-MB-231 (ATCC HTB-26) epithelial mammary adenocarcinoma cells were cultured in Eagle's minimum essential medium (EMEM; Invitrogen) containing 5% fetal calf serum (FCS, Cambrex), 2 mM L-glutamine (Invitrogen), 0.06% HEPES (Invitrogen) and penicillin (50 IU/ml)/streptomycin (50 µg/ml; Invitrogen) at 37° C. in a humidified atmosphere of 5% CO2 in air. Transformed mouse NPCs were cultured in suspension under neurosphere conditions at 37° C. in a humidified atmosphere of […] and 5% CO2 in DMEM F12 (Invitrogen 11320-074) supplemented with 1×B27 supplement (Invitrogen 17504-044), 5% penicillin-streptomycin (Biochrom 10378-017), 10 ng/ml EGF (R&D systems 236-EG), 10 ng/ml FGF (PeproTech 100-18B).
(§2) Antiproliferative properties of the synthesized compounds were evaluated by the MTT assay. All compounds were dissolved in DMSO at a concentration of either 100 μM or 50 μM prior to cell treatment. The cells were trypsinized and seeded at various cell concentrations depending on the cell type. The cells were grown for 24 h to 72 h, treated with compounds at concentrations ranging from 0.001 to 100 μM and incubated for 48 or 72 h in 100 or 200 μL media depending on the cell line used. The number of experiments and replicates varied depending on the cell line. Cells treated with 0.1% DMSO were used as a negative control; 1 μM PAO was used as a positive control.
(§3) The synthesized C12-Wittig derivatives were evaluated for antiproliferative activities in a panel of cancer cell lines that included apoptosis-resistant human U373 glioblastoma (GBM) (Lefranc et al., 2013), human A549 non-small cell lung cancer (NSCLC) and human SKMEL-28 melanoma (Mathieu et al., 2009) as well as apoptosis-sensitive human Hs683 anaplastic oligodendroglioma (Lefranc et al., 2013) and human MCF-7 breast cancer (Frolova et al., 2013).

[2] = tested on: uterine sarcoma MES-SA cells; experiment: MTT antiproliferative assay, MES-SA; assay type: cell-based, human; settings: Homo sapiens, MES-SA, 48 h treatment, relative to DMSO control, read-out: GI50 in vitro values, MES-SA
Description: as §1
(§4) Antiproliferative properties of the synthesized compounds were evaluated by the MTT assay. All compounds were dissolved in DMSO at a concentration of either 100 μM or 50 μM prior to cell treatment. The cells were trypsinized and seeded at various cell concentrations depending on the cell type. […]

[3] = tested on: MDR uterine sarcoma cell line MES-SA/Dx5; experiment: MTT antiproliferative assay, MDR MES-SA/Dx5; assay type: cell-based, human
Description: as §1, §2
Selection of the MES-SA/D×5 cell line was done according to Harker et al. (Harker & Sikic, 1985). The cells were split and allowed to adhere overnight. The next day cells were initially exposed to doxorubicin (DOX) at the concentration of 100 nM, which represented the GI50 concentration. The cells were maintained at this DOX concentration until their growth rate reached that of the untreated cells. The DOX concentration was then increased in two-fold increments following the same growth criteria at each concentration to a final DOX concentration of 500 nM. Each new DOX concentration required approximately 2 passages to reach the growth rate of the untreated cells.
Often, tumors initially respond to chemotherapy but eventually become refractory to the continuing treatment. Such acquired resistance commonly occurs through the development of a multi-drug resistant phenotype (MDR) (Gottesman et al., 2002 and Saraswathy & Gong, 2013) affecting many common chemotherapeutic agents, including the vinca alkaloids (Chen et al., 2000) and taxanes (Geney et al., 2002). In addition, the development of apoptosis resistance and MDR mechanisms is often related and concurrent (Ruefli et al., 2002 and Johnstone et al., 1999), and thus it was of interest to evaluate 5 against MDR cells. Towards this end, the MDR uterine sarcoma cell line MES-SA/D×5, established by growing the parent uterine sarcoma MES-SA in the presence of increasing concentrations of doxorubicin and resistant to multiple functionally and structurally unrelated molecules (Harker & Sikic, 1985), was utilized.

[4] = tested on: U87 glioblastoma cell cultures; experiment: MTT growth curves, U87; assay type: cell-based, human; settings: apoptosis-resistant U87 GBM; concentrations up to 100 μM
Description: as §1, §4

[5] = tested on: human SKMEL-28 melanoma; experiment: MTT antiproliferative assay, SKMEL-28; assay type: cell-based; settings: Homo sapiens, SK-MEL-28, 72 h treatment, sextuplicates, read-out: GI50 in vitro values, SKMEL-28
Description: as §1, §2, §3

[6] = tested on: human MCF-7 breast cancer; experiment: MTT antiproliferative assay, MCF-7; assay type: cell-based; settings: Homo sapiens, MCF7, 72 h treatment, sextuplicates, read-out: GI50 in vitro values, MCF-7
Description: as §1, §2, §3

[7] = tested on: human U373 glioblastoma (GBM); experiment: MTT antiproliferative assay, U373; assay type: cell-based; settings: Homo sapiens, U373 MG, 72 h treatment, sextuplicates, read-out: GI50 in vitro values, U373
Description: as §1, §2, §3

[8] = tested on: human Hs683 anaplastic oligodendroglioma; experiment: MTT antiproliferative assay, Hs683; assay type: cell-based; settings: Homo sapiens, Hs 683, 72 h treatment, sextuplicates, read-out: GI50 in vitro values, Hs683
Description: as §1, §2, §3

[9] = tested on: panel of cancer cell lines (A549, SKMEL-28, MCF-7, U373, Hs683); experiment: MTT antiproliferative assay, panel of five cancer cell lines; assay type: cell-based, human; settings: Homo sapiens; mean over five cell lines, 72 h treatment, MTT assay; read-out: GI50 in vitro values, Mean + SEM
Description: as §2, §3

[10] = tested on: U373 human glioma cell line; experiment: Quantitative videomicroscopy, U373; assay type: cell-based; settings: at GI50 concentrations (Table 1)
Description: FIG. 8. In vitro videomicroscopic analysis of the anticancer effects of 1 and its C12-Wittig derivatives 5 and 13. The U373 human glioma cell line was treated with polygodial, 5 and 13 at their mean GI50 concentrations (Table 1) or left untreated. Videomicroscopy enabled taking pictures of the culture field every 4 minutes. The experiment was conducted once in triplicate. While the morphology of cells treated with 1 was fixed over time, 5 and 13 exerted cytostatic effects on U373 cells.
In an effort to gain insight into possible mechanisms associated with antiproliferative properties of 1 and the C12-Wittig derivatives, the morphological changes in cells treated with these compounds were studied with computer-assisted phase-contrast microscopy (Luchetti et al., 2012) (quantitative videomicroscopy).

[11] = tested on: U373 cells; experiment: Trypan blue viability assay, U373; assay type: cell-based, human; settings: 72 h treatment
Description: FIG. 9. Viability of U373 cells by trypan blue staining. U373 cells were treated for 72 h with 1 or 13 and stained with trypan blue. The experiment was conducted once in triplicate. After having taken pictures, cells were fixed with ice-cold methanol and again stained with trypan blue as internal positive control.
To confirm the results obtained in the videomicroscopy experiments, trypan blue assay was employed to detect necrotic and late apoptotic cells that had lost their plasma membrane integrity (FIG. 9). […] These observations support the results of the MTT assay and provide an explanation for the effectiveness of the C12-Wittig derivatives against cells, which display resistance to apoptosis induction. In contrast, at the concentrations necessary to induce cancer cell death 1 behaves as a toxic fixative compound of little promise as a potential drug.

[12] = tested on: transgenic mouse glioma cells (neurosphere cultures); experiment: CytoTox-Fluor cytotoxicity assay, neurosphere glioma cultures; assay type: cell-based; settings: cdkn2a deletion, PDGFB amplification, TRPV1-deficient; 24 h; 5 at 20 μM, CBD at 10 μM
Description: FIGS. 5A-D. Activity of 5 against neurosphere glioma cell cultures with clinically relevant mutations. Transgenic mouse glioma cells of defined molecular subtypes were generated by forced expression of EGFRvIII (classical GBM subtype), PDGFB (proneural GBM subtype) in cdkn2a-deficient and cdkn2a/TRPV1-doubly deficient subventricular neural precursors (NPC). These primary cell cultures were treated for 24 hours either with 10 μM CBD versus a corresponding vehicle-control (containing 0.01% DMSO) or 20 μM of 5 versus vehicle control (0.02% DMSO). Cytotoxicity was measured 24 h after incubation and base-line cytotoxicity levels in the controls were arbitrarily defined as 1. Read-outs from treated cells were normalized to their respective vehicle controls and -fold change of relative cytotoxicity was calculated. Each bar represents the mean±SD from two independent experiments; statistical significance, as determined by unpaired t-tests, is indicated: *** represents p<0.001; ** p<0.005; * p=0.0257; ns not significant).
Human mammary carcinoma MCF-7 (ATCC HTB22) cells were cultured in RPMI supplemented with 10% FBS. […]
The CytoTox-Fluor cytotoxicity assay from Promega has been used according to manufacturer's instructions. […] After 2 hours of incubation at 37° C., the fluorescence intensity was measured using the Tecan InfiniteF200 fluorescence plate reader (485 nm Ex/520 nm Em). […]

## CC(=O)O[C@H]1C(=O)[C@@]2(C)[C@H]([C@H](OC(=O)c3ccccc3)[C@]3(O)C[C@H](OC(=O)[C@H](O)[C@@H](NC(=O)c4ccccc4)c4ccccc4)C(C)=C1C3(C)C)[C@]1(OC(C)=O)CO[C@@H]1C[C@@H]2O [Paclitaxel]
[1]; apoptosis-resistant A549 NSCLC, concentrations up to 100 μM
  effect on proliferation/viability of all cells, A549: no effect on proliferation of ca. 50% of cells
[2]
  GI50: 0.007 µM
[3]; 48 h MTT
  change of potency against MES-SA/Dx5 MDR cell line as compared with parent MES-SA cells: lost their potency by a factor of a thousand
[3]; Homo sapiens, MES-SA/Dx5, 48 h treatment, MTT assay, relative to DMSO control, read-out: GI50 in vitro values, MES-SA/Dx5
  GI50: 10 µM
[4]
  effect on proliferation/viability of all cells, U87: no effect on proliferation of ca. 50% of cells

## C#CCCCOC(=O)/C=C/C1=CC[C@H]2C(C)(C)CCC[C@]2(C)[C@H]1C=O [Compound 13]
[1]; Homo sapiens, A549, 72 h treatment, MTT assay, sextuplicates, read-out: GI50 in vitro values, A549
  GI50: 30 µM
[5]
  GI50: 36 µM
[6]
  GI50: 30 µM
[7]
  GI50: 35 µM
[8]
  GI50: 33 µM
[9]
  GI50: 33 ± 1 µM
[10]
  morphological effect by videomicroscopy: inhibited cancer cell proliferation without inducing cell death
[11]
  viability by trypan blue staining: still alive after 72 hr of treatment

## C=C(C)[C@@H]1CCC(C)=C[C@H]1c1c(O)cc(CCCCC)cc1O [CBD, cannabidiol, reference compound]
[12]
  cytotoxicity against GBM neurosphere cultures lacking the TRPV1 gene: loses its activity
